Experimental data taken from patent US10098350B2, “Fungicidal amides” (E. I. DU PONT DE NEMOURS AND COMPANY, priority 2013, dated 2018).

How the values were obtained:
Format in all cases: in vivo
Botrytis cinerea = assay: Test A: tomato seedlings sprayed with test suspension, inoculated with Botrytis cinerea (gray mold), visual disease rating
Text: (§1) General protocol for preparing test suspensions for Tests A-E: the test compounds were first dissolved in acetone in an amount equal to 3% of the final volume and then suspended at the desired concentration (in ppm) in acetone and purified water (50/50 mix by volume) containing 250 ppm of the surfactant Trem® 014 (polyhydric alcohol esters). The resulting test suspensions were then used in Tests A-E. Samples were applied to plants at either a 10 ppm (**), 40 ppm, 50 ppm (*) or 200 ppm (#) test solution to the point of run-off on the test plants with the equivalent of a rate of 40 g ai/ha, 160 g ai/ha, 200 g ai/ha, or 800 g ai/ha, respectively.
The test suspension was sprayed to the point of run-off on tomato seedlings. The following day the seedlings were inoculated with a spore suspension of Botrytis cinerea (the causal agent of gray mold on many crops) and incubated in a saturated atmosphere at 20° C. for 48 h, and moved to a growth chamber at 27° C. for 2 days, after which time visual disease ratings were made.
(§2) Results for Tests A-E are given in Table A. In the Table, a rating of 100 indicates 100% disease control and a rating of 0 indicates no disease control (relative to the controls). A dash (-) indicates no test results.

[1] = tested on: Stagonospora nodorum (also known as Septoria nodorum); assay: Test B: wheat seedlings sprayed with test suspension, inoculated with Stagonospora nodorum (wheat glume blotch), visual disease rating
Text: as §1
The test suspension was sprayed to the point of run-off on wheat seedlings. The following day the seedlings were inoculated with a spore suspension of Stagonospora nodorum (also known as Septoria nodorum; the causal agent of wheat glume blotch) and incubated in a saturated atmosphere at 20° C. for 48 h, and then moved to a growth chamber at 20° C. for 6 days, after which time visual disease ratings were made.
as §2

Septoria tritici = assay: Test C: wheat seedlings sprayed with test suspension, inoculated with Septoria tritici (wheat leaf blotch), visual disease rating
How it was run: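 Wheat seedlings sprayed to run-off with compound suspended in acetone/water with 250 ppm Trem 014, at 10, 40, 50 or 200 ppm (40–800 g ai/ha). Inoculated with Septoria tritici spores the next day, held 48 h saturated at 24 °C, then 21 days at 20 °C. Visual rating 0–100% disease control relative to controls.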

[2] = tested on: Puccinia recondite f. sp. tritici; assay: Test D: wheat seedlings sprayed with test suspension, inoculated with Puccinia recondite f. sp. tritici (wheat leaf rust), visual disease rating
How it was run: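 Wheat seedlings were sprayed to run-off with compound suspended in 50/50 acetone–water containing 250 ppm Trem 014, at 10-200 ppm (40-800 g ai/ha). They were inoculated with rust spores the next day, then kept 24 h saturated at 20 °C and 6 days at 20 °C. Scores are visual % disease control versus untreated controls.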

[3] = tested on: Erysiphe graminis f. sp. tritici; assay: Test E: wheat seedlings sprayed with test suspension, inoculated with Erysiphe graminis f. sp. tritici (wheat powdery mildew), visual disease rating
How it was run: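 Wheat seedlings sprayed to run-off with compound suspension (acetone 3%, acetone/water 50/50 with 250 ppm Trem 014) at 10, 40, 50 or 200 ppm (40–800 g ai/ha), inoculated next day with spore dust. Incubated 7 or 8 days at 20° C, then rated visually as % disease control relative to controls (0–100).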

[4] = Cmpd. No. unmarked, 100 = 100% disease control, 0 = no control relative to controls
[5] = Cmpd. No. marked '#' (other test rate; meaning of mark not shown)

Cn1cc(C(=O)N(Cc2cccc(-n3ccc(C(F)(F)F)n3)c2C(F)(F)F)C2CC2)c(C(F)F)n1 [compound 41]
Test A rating (% disease control) (Botrytis cinerea; [4]): 0% | Test B rating (% disease control) [1, 4]: 0% | Test C rating (% disease control) (Septoria tritici; [4]): 94% | Test D rating (% disease control) [2, 4]: 23% | Test E rating (% disease control) [3, 4]: 40%

Cc1ccc(-n2ccc(C(F)(F)F)n2)cc1CN(C(=O)c1cn(C)nc1C(F)F)C1CC1 [compound 28]
Test A rating (% disease control) (Botrytis cinerea; [4]): 11% | Test B rating (% disease control) [1, 4]: 99% | Test C rating (% disease control) (Septoria tritici; [4]): 45% | Test D rating (% disease control) [2, 4]: 45% | Test E rating (% disease control) [3, 4]: 59%

Cc1nc(C(F)(F)F)c(C(=O)N(Cc2cccc(-n3ccc(C(F)(F)F)n3)c2)C2CC2)s1 [Compound 150]
Test A rating (% disease control) (Botrytis cinerea; [4]): 0% | Test B rating (% disease control) [1, 4]: 0% | Test C rating (% disease control) (Septoria tritici; [4]): 48% | Test D rating (% disease control) [2, 4]: 9% | Test E rating (% disease control) [3, 4]: 0%

COc1ccc(-n2ccc(C(F)(F)F)n2)cc1CN(C(=O)c1cn(C)nc1C(F)F)C1CC1 [compound 14]
Test A rating (% disease control) (Botrytis cinerea; [4]): 0% | Test B rating (% disease control) [1, 4]: 42% | Test C rating (% disease control) (Septoria tritici; [4]): 83% | Test D rating (% disease control) [2, 4]: 32% | Test E rating (% disease control) [3, 4]: 92%

Cn1cc(C(=O)N(Cc2cc(-n3ccc(C(F)(F)F)n3)ccc2Cl)C2CC2)c(C(F)F)n1 [compound 30]
Test A rating (% disease control) (Botrytis cinerea; [4]): 0% | Test B rating (% disease control) [1, 4]: 60% | Test C rating (% disease control) (Septoria tritici; [4]): 87% | Test D rating (% disease control) [2, 4]: 31% | Test E rating (% disease control) [3, 4]: 64%

Cn1cc(C(=O)N(Cc2ccc(-n3ccc(C(F)(F)F)n3)cc2Cl)C2CC2)c(C(F)(F)F)n1 [Compound 35]
Test A rating (% disease control) (Botrytis cinerea; [4]): 0% | Test B rating (% disease control) [1, 4]: 0% | Test C rating (% disease control) (Septoria tritici; [4]): 89% | Test D rating (% disease control) [2, 4]: 9% | Test E rating (% disease control) [3, 4]: 0%

Cn1cc(C(=O)N(Cc2cccc(-n3ccc(C(F)(F)F)n3)c2)C2CC2)c(C(F)F)n1 [Compound 9, N-cyclopropyl-3-(difluoromethyl)-1-methyl-N-[[3-[3-(trifluoromethyl)-1H-pyrazol-1-yl]phenyl]methyl]-1H-pyrazole-4-carboxamide]
Test A rating (% disease control) (Botrytis cinerea; [5]): 39% | Test A rating (% disease control) (Botrytis cinerea; [4]): 9% | Test B rating (% disease control) [1, 5]: 99% | Test B rating (% disease control) [1, 4]: 93% | Test C rating (% disease control) (Septoria tritici; [5]): 100% | Test C rating (% disease control) (Septoria tritici; [4]): 96% | Test D rating (% disease control) [2, 5]: 74% | Test D rating (% disease control) [2, 4]: 9% | Test E rating (% disease control) [3, 5]: 96% | Test E rating (% disease control) [3, 4]: 81%

Cn1cc(C(=O)N(Cc2cc(-n3ccc(C(F)(F)F)n3)ccc2C2CC2)C2CC2)c(C(F)F)n1 [compound 33]
Test A rating (% disease control) (Botrytis cinerea; [4]): 0% | Test B rating (% disease control) [1, 4]: 98% | Test D rating (% disease control) [2, 4]: 68% | Test E rating (% disease control) [3, 4]: 94%

Cc1cc(-n2ccc(C(F)(F)F)n2)cc(CN(C(=O)c2cn(C)nc2C(F)F)C2CC2)c1F [compound 29]
Test A rating (% disease control) (Botrytis cinerea; [4]): 0% | Test B rating (% disease control) [1, 4]: 94% | Test C rating (% disease control) (Septoria tritici; [4]): 83% | Test D rating (% disease control) [2, 4]: 68% | Test E rating (% disease control) [3, 4]: 48%

Cc1ccc(CN(C(=O)c2cn(C)nc2C(F)F)C2CC2)cc1-n1ccc(C(F)(F)F)n1 [compound 27]
Test A rating (% disease control) (Botrytis cinerea; [4]): 0% | Test B rating (% disease control) [1, 4]: 92% | Test C rating (% disease control) (Septoria tritici; [4]): 38% | Test D rating (% disease control) [2, 4]: 31% | Test E rating (% disease control) [3, 4]: 21%

Cn1nc(C(F)F)c(C(=O)N(Cc2cccc(-n3ccc(C(F)(F)F)n3)c2)C2CC2)c1F [Compound 3, N-cyclopropyl-3-(difluoromethyl)-5-fluoro-1-methyl-N-[[3-[3-(trifluoromethyl)-1H-pyrazol-1-yl]phenyl]methyl]-1H-pyrazole-4-carboxamide]
Test A rating (% disease control) (Botrytis cinerea; [4]): 0% | Test B rating (% disease control) [1, 4]: 100% | Test C rating (% disease control) (Septoria tritici; [4]): 100% | Test D rating (% disease control) [2, 4]: 99% | Test E rating (% disease control) [3, 4]: 99%

Cc1ccsc1C(=O)N(Cc1cccc(-n2ccc(C(F)(F)F)n2)c1)C1CC1 [Compound 152]
Test A rating (% disease control) (Botrytis cinerea; [4]): 0% | Test B rating (% disease control) [1, 4]: 0% | Test C rating (% disease control) (Septoria tritici; [4]): 0% | Test D rating (% disease control) [2, 4]: 0% | Test E rating (% disease control) [3, 4]: 0%

Cc1ccc(C(C)N(C(=O)c2cn(C)nc2C(F)F)C2CC2)cc1-n1ccc(C(F)(F)F)n1 (stereo not shown) [compound 26]
Test A rating (% disease control) (Botrytis cinerea; [4]): 0% | Test B rating (% disease control) [1, 4]: 99% | Test D rating (% disease control) [2, 4]: 0% | Test E rating (% disease control) [3, 4]: 81%

COc1cc(-n2ccc(C(F)(F)F)n2)ccc1CN(C(=O)c1c(C(F)F)nn(C)c1F)C1CC1 [compound 25]
Test A rating (% disease control) (Botrytis cinerea; [4]): 0% | Test B rating (% disease control) [1, 4]: 100% | Test D rating (% disease control) [2, 4]: 100% | Test E rating (% disease control) [3, 4]: 98%

Cn1cc(C(=O)N(Cc2cccc(-n3ccc(C(F)(F)F)n3)c2)C2CC2)c(C(F)(F)F)n1 [Compound 149]
Test A rating (% disease control) (Botrytis cinerea; [4]): 0% | Test B rating (% disease control) [1, 4]: 0% | Test C rating (% disease control) (Septoria tritici; [4]): 43% | Test D rating (% disease control) [2, 4]: 0% | Test E rating (% disease control) [3, 4]: 0%

Cn1cc(C(=O)N(Cc2cccc(-n3ccc(C(F)(F)F)n3)c2Cl)C2CC2)c(C(F)F)n1 [compound 38]
Test A rating (% disease control) (Botrytis cinerea; [4]): 14% | Test B rating (% disease control) [1, 4]: 0% | Test D rating (% disease control) [2, 4]: 41% | Test E rating (% disease control) [3, 4]: 69%

Cn1nc(C(F)F)c(C(=O)N(Cc2ccc(-n3ccc(C(F)(F)F)n3)cc2Cl)C2CC2)c1F [Compound 12, N-[[2-chloro-4-[3-(trifluoromethyl)-1H-pyrazol-1-yl]phenyl]methyl]-N-cyclopropyl-3-(difluoromethyl)-5-fluoro-1-methyl-1H-pyrazole-4-carboxamide]
Test A rating (% disease control) (Botrytis cinerea; [4]): 0% | Test B rating (% disease control) [1, 4]: 100% | Test C rating (% disease control) (Septoria tritici; [4]): 100% | Test D rating (% disease control) [2, 4]: 99% | Test E rating (% disease control) [3, 4]: 97%

Cn1cc(C(=O)N(Cc2ccc(-n3cc(Br)cn3)cc2Cl)C2CC2)c(C(F)F)n1 [Compound 10]
Test A rating (% disease control) (Botrytis cinerea; [4]): 0% | Test B rating (% disease control) [1, 4]: 99% | Test C rating (% disease control) (Septoria tritici; [4]): 38% | Test D rating (% disease control) [2, 4]: 86% | Test E rating (% disease control) [3, 4]: 0%

N-cyclopropyl-3-(difluoromethyl)-1-methyl-N-[[3-[3-(trifluoromethyl)-1H-pyrazol-1-yl]phenyl]methyl]-1H-pyrazole-4-carboxamide [Compound 9]
Test A rating (% disease control) (Botrytis cinerea; [5]): 0% | Test A rating (% disease control) (Botrytis cinerea; [4]): 0% | Test B rating (% disease control) [1, 5]: 0% | Test B rating (% disease control) [1, 4]: 0% | Test C rating (% disease control) (Septoria tritici; [5]): 96% | Test C rating (% disease control) (Septoria tritici; [4]): 43% | Test D rating (% disease control) [2, 5]: 0% | Test D rating (% disease control) [2, 4]: 0% | Test E rating (% disease control) [3, 5]: 43% | Test E rating (% disease control) [3, 4]: 0%

Cn1cc(C(=O)N(Cc2ccc(-n3ccc(C(F)(F)F)n3)cc2Cl)C2CC2)c(C(F)F)n1 [compound 11]
Test A rating (% disease control) (Botrytis cinerea; [4]): 0% | Test B rating (% disease control) [1, 4]: 89% | Test C rating (% disease control) (Septoria tritici; [4]): 100% | Test D rating (% disease control) [2, 4]: 54% | Test E rating (% disease control) [3, 4]: 43%

Cn1cc(C(=O)N(Cc2cc(-n3ccc(C(F)(F)F)n3)ccc2Br)C2CC2)c(C(F)F)n1 [compound 32]
Test A rating (% disease control) (Botrytis cinerea; [4]): 0% | Test B rating (% disease control) [1, 4]: 0% | Test D rating (% disease control) [2, 4]: 0% | Test E rating (% disease control) [3, 4]: 97%

Cn1cc(C(=O)N(Cc2c(Cl)cc(-n3ccc(C(F)(F)F)n3)cc2Cl)C2CC2)c(C(F)F)n1 [compound 36]
Test A rating (% disease control) (Botrytis cinerea; [4]): 0% | Test B rating (% disease control) [1, 4]: 99% | Test D rating (% disease control) [2, 4]: 99% | Test E rating (% disease control) [3, 4]: 90%

CC(c1ccc(C(F)(F)F)c(-n2ccc(C(F)(F)F)n2)c1)N(C(=O)c1cn(C)nc1C(F)F)C1CC1 (stereo not shown) [compound 21]
Test A rating (% disease control) (Botrytis cinerea; [4]): 0% | Test B rating (% disease control) [1, 4]: 0% | Test D rating (% disease control) [2, 4]: 0% | Test E rating (% disease control) [3, 4]: 64%
